Key:
[1] = system: A. viscuosus; assay: Minimum inhibitory concentration test: optical density at 610 nm of A. viscuosus in tryptic soy broth, 96 well plate; type: cell-based; settings: 37° C. for 18 hours
Description: Stock solutions of the zinc ascorbyl phosphate of Example 1, ascorbyl phosphate, zinc oxide, and the zinc-lysine complex were each prepared in water. The concentration of active ingredient in each solution was 0.1 M. Aliquots of each test solution (200 μL) were placed in the first row of a 96 well plate. Serial dilutions of the stock solutions were prepared on the plate by mixing the stock solutions with tryptic soy broth on a 1:1 basis. The concentrations of active ingredient prepared on this basis varied from 50 mM to 0.00488 mM.
A solution of A. viscuosus with an optical density of 0.2 at 610 nm was prepared. Aliquots of the A. viscuosus solution (100 μL) were then added to each test well. Four control wells containing TSB buffer and A. viscuosus solution were prepared. Four blank wells containing TSB buffer alone were also prepared.
The plate was then incubated at 37° C. for 18 hours. The optical density of each well at 610 nm was then recorded using a plate reader.

[2] = cited from earlier work
[3] = 50 mM active ingredient, lower reading = improved antibacterial effect

| Molecule | optical density reading ([1]; 0.005 mM active ingredient) | optical density reading ([1]; 0.00977 mM active ingredient) | optical density reading ([1]; 0.195 mM active ingredient) | optical density reading ([1]; 0.391 mM active ingredient) | optical density reading ([1]; 0.781 mM active ingredient) | optical density reading ([1]; 1.563 mM active ingredient) | optical density reading ([1]; 3.125 mM active ingredient) | optical density reading ([1]; 6.25 mM active ingredient) | optical density reading ([1]; 12.5 mM active ingredient) | optical density reading ([1]; 25 mM active ingredient) | optical density reading [1, 3] | solubility under aqueous conditions [2] |
| --- | --- | --- | --- | --- | --- | --- | --- | --- | --- | --- | --- | --- |
| CCCCCCCCCCCCCCCC(=O)OC[C@H](O)[C@H]1OC(=O)C(O)=C1O [Ascorbyl Palmitate] | 0.70 | 0.71 | 0.71 | 0.69 | 0.70 | 0.70 | 0.68 | 0.69 | 0.72 | 0.68 | 0.64 |  |
| zinc-lysine complex | 0.68 | 0.71 | 0.69 | 0.65 | 0.58 | 0.44 | 0.34 | 0.15 | 0.20 | 0.35 | 0.56 |  |
| [O]=[Zn] [Zinc Oxide, zinc oxide] | 0.68 | 0.68 | 0.67 | 0.66 | 0.60 | 0.45 | 0.33 | 0.29 | 0.40 | 0.65 | 1.55 | poorly soluble |

Reference: US9757320B2, “Oral care composition” (Colgate-Palmolive Company, priority 2012, dated 2017)
